Experimental data published in patent US20250387382A1, “METHODS OF TREATING ESSENTIAL TREMOR” (Praxis Precision Medicines, Inc., priority 2023, published 2025).

Columns and labels:
Assay type in all cases: in vivo, human
[1] = system: participants with moderate to severe ET; assay: Phase 2 trial, double-blind part: safety/tolerability
Experimental: (§1) This trial is a Phase 2 trial to evaluate the efficacy and safety/tolerability of titration of Compound 1 to 60 mg or 100 mg compared to placebo in participants with moderate to severe ET. Severity of ET in this study was defined by eligibility criteria on TETRAS-ADL, CGI-S, and TETRAS-PS items 6 and 7. This dose range finding trial is comprised of three parts. The first part was randomized, double-blinded (DB), and placebo-controlled, the second part was an optional extension that consisted of an Extension DB Lead-in Period followed by an Extension Open-label (OL) Period. Further, there was also a third part available for completers of the Day 99 visit, which third part was comprised of a blinded cross-over period (referred to as cross-over period) after re-randomization for 6 weeks, after which all completers would receive formula (I) in an open-label fashion. In part one of the trial, eligible participants were randomized to 1 of 2 dose levels of Compound 1 (60 mg or 100 mg) or to placebo. The primary objective of this trial was to evaluate the efficacy of Compound 1 compared to placebo after 56 days (end of randomized, DB, placebo-controlled part) of dosing in participants with ET with moderate to severe tremor utilizing modified ADL as the primary efficacy endpoint. Secondary and exploratory objectives include further efficacy evaluations, an evaluation of the safety and tolerability, and determination of plasma concentrations of formula (I) and its metabolites. The design of the Phase 2 trial is illustrated in FIG. 1.
Throughout the Intervention Period (Day 1 to Day 56), participants who chose to stop dosing or were required to stop dosing entered the Safety Follow-up Period. All participants were asked to return to the clinic for the Safety Follow-up Visit 14 days after their last dose of study drug except for those that chose to enroll in the optional Extension part of the trial (see below).
On Days 7, 21, 35, and 54 participants received a telephone call from site staff to ask about AEs and changes in concomitant medications.

[2] = system: healthy participants and patients with ET; assay: Safety across the clinical development program
[3] = system: participants with moderate to severe ET; assay: Phase 2 trial, randomized double-blind placebo-controlled part: efficacy (TETRAS mADL, ADL, mADL11, PGI-C, CGI-S)
Source text: as §1, with “Severity” for “This trial is a Phase 2 trial to evaluate the efficacy and safety/tolerability of titration of Compound 1 to 60 mg or 100 mg compared to placebo in participants with moderate to severe ET. Severity”, “In part one of the trial, eligible participants were randomized to 1 of 2 dose levels of Compound 1 (60 mg or 100 mg) or to placebo.” left out
Participants who continued to meet all clinical trial entry criteria on Day 1 were randomized to receive DB treatment with Compound 1 or placebo every morning (QAM) from Day 1 through Day 56. Participants were randomized to 1 of 2 fixed-dose regimens or placebo in a 1:1:1 ratio. No dosage adjustments were allowed.
On Days 14, 28, 42, and 56, participants returned to the clinic for PK sampling, dosing, efficacy, and safety assessments. Key efficacy assessments at these visits included TETRAS-PS, TETRAS ADL, CGI-S, CGI-I, and PGI C.
Fixed titration regimens were used (Table 1). Participants were not allowed to adjust the number of tablets per day.
Selected items from the TETRAS-ADL and TETRAS-PS (or TETRAS-CUL, as appropriate) were scored in a modified manner and combined to create a TETRAS modified total score. Items 1-11 in the TETRAS ADL subscale and items 6 and 7 of the TETRAS-PS were used, with scoring adjusted so that response options 0 and 1 were combined into a single response of “0=Normal.” Further, scores of 2, 3, and 4 were adjusted to 1, 2, and 3, respectively. The TETRAS modified total score were the sum of these adjusted TETRAS-ADL and TETRAS PS items, having a possible range of 0 to 42, where larger values represent increased direct tremor impact to activities of daily living. The items that are included in the TETRAS-modified total score are illustrated in FIG. 2.
The primary efficacy measure in this clinical trial was change from baseline in mADL at day 56. Ulixacaltamide effect on individual mADL items was determined by calculating the fold-change adjusted by placebo change at Day 56 in mADL for individual mADL items. The secondary efficacy measures included change in Clinical Global Impression-Severity (CGI-S) score, Patient Global Impression-Change (PGI-C) score, TETRAS-ADL total score, TETRAS-UL score, TETRAS-CUL score and TETRAS-PS score.

CC(C)(C)NC(=O)CN1CCC(CNC(=O)c2cc(F)cc(Cl)c2)CC1 [Compound 1, N-((1-(2-(tert-butylamino)-2-oxoethyl)piperidin-4-yl)methyl)-3-chloro-5-fluorobenzamide]
Safety profile, 60 mg vs 100 mg groups ([1]; in vivo): no significant difference in the safety profile | Severity of the majority of TEAEs ([1]; in vivo): mild-moderate | Proportion of subjects who discontinued ([1]; placebo 11%): 17% | Tolerability ([1]; titration to 60 mg or 100 mg, 56 days): well tolerated | Deaths or SAEs considered related to study drug ([2]; human, in vivo): No deaths or serious adverse events (SAEs) | Suicide attempts or pregnancies reported ([2]; human, in vivo): no suicide attempts or pregnancies | Safety profile ([2]; modified release formulation, titration, 5 to 120 mg for up to 129 days): favorable safety profile | Tolerability ([2]; up to 129-days of daily administration, 5 to 120 mg, titration schedule): generally well tolerated | mADL11 treatment effect relative to placebo ([3]; Day 14, participants without intention tremor): 1.03 points | LSM mADL11 change from baseline, treatment effect relative to placebo ([3]; Day 28): 1.44 | TETRAS PS items (dominant hand handwriting, left and right hand spirals), improvement vs placebo ([3]; Day 56): less improvement than those receiving placebo | mADL11 LSM treatment difference vs placebo ([3]; after 56 days, 95% CI −3.565, −0.066, nominal p <0.05): −1.82 | mADL and mADL11 scores vs. placebo at each scored timepoint ([3]; after day 14, FIG. 15): improvement | Magnitude of benefit on mADL11 vs placebo, 60 mg vs 100 mg groups ([3]; change from baseline versus placebo): largely similar | Modified ADL (mADL) scores in the Phase 2 trials ([3]; daily doses ranging from 20 to 120 mg for up to 56 days): reduced modified ADL (mADL) scores | mADL scores, patients showing improvement vs placebo ([3]; day 56, FIG. 9): more patients taking ulixacaltamide showed improvements | ADL score, average reduction compared to baseline ([3]; day 56, n=78): 3.6 points | ADL scored items with consistent effect relative to placebo ([3]; individual items, Day 56): 8 of 11 | Patients improved on CGI-S scale ([3]; mITT): 42% | Patients improved on PGI-C scale ([3]; mITT): 47% | mADL-scored items vs baseline in ET patients who do not have intention tremor ([3]; mITT excluding intention tremor, FIGS. 18 and 19): larger improvement | Placebo-adjusted mADL excluding PS, 60 mg vs 100 mg regimens ([3]; mITT patients without intention tremor, FIG. 20): consistent effect observed across both tested dosing regimens | mADL LS mean difference vs. placebo ([3]; mITT, Day 56, p=0.126): 1.57 | Modified ADL score, mean decrease ([3]; n=78, placebo 0.88 points): 2.69 points | Patients achieving at least a 3-point improvement in mADL11 ([3]; patients on propranolol and ulixacaltamide, 25% for propranolol and placebo): 48% | mADL excluding PS items, LS mean difference vs. placebo ([3]; post hoc, Day 56, mITT, p=0.042): 1.81 | Treated participants with at least a 2 point improvement in total score ([3]; post-hoc responder analysis, 0.5 SD threshold, mITT): greater than 50% | Treated subjects with at least a 4 point improvement in total score ([3]; post-hoc responder analysis, 1 SD threshold, mITT): roughly 40% | Response rates vs placebo for mADL and mADL excluding PS items ([3]; post-hoc responder analysis, MCID distribution method, mITT): greater response rates | Change in TETRAS-ADL, LS mean difference vs. placebo ([3]; secondary endpoint, p=0.026): 2.53
